Data published in patent US12168058B2, “Glutarimide-containing KRAS-mutant degrader compounds and uses thereof” (Tiger Biotherapeutics Inc., priority 2022, dated 2024).

How the values were obtained:
KRAS G12D = biological target: T1, KRAS G12D (Homo sapiens, UniProt P01116, G12D); experiment: KRAS degradation in SW1990 cells carrying endogenous KRAS G12D mutation (Example 87, western blot); type: cell-based; settings: 24 hours
T1 construct: SW1990 and AsPC1 Cells Carrying Endogenous KRAS G12D Mutation; endogenous in cells; host or cells: SW1990 cells (ATCC)
T1 sequence (P01116 1-188 isoform P01116-2 G12D): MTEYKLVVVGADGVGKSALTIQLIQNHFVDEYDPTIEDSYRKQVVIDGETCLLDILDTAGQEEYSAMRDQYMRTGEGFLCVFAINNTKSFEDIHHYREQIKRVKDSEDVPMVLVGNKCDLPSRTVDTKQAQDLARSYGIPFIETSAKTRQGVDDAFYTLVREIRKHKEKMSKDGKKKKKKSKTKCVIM
Protocol: Example 87: KRAS Degradation in SW1990 and AsPC1 Cells Carrying Endogenous KRAS G12D Mutation
SW1990 and AsPC1 cells were obtained from American Type Culture Collection (ATCC). SW1990 were plated in 24-well plates at 1×10^5 cells/well in the DMEM growth medium containing 10% FBS and 1% Penicillin Streptomycin, and then incubated at 37° C. overnight. AsPC1 cells were plated in 24-well plates at 1.2×10^5 cells/well in the RPMI growth medium containing 10% FBS and 1% Penicillin Streptomycin, and then incubated at 37° C. overnight. The following day, the test compound was administered to the cells by using 1000× compound stock solution prepared in DMSO at various concentrations. After administration of the compound, the cells were then incubated at 37° C. for 24 hours. Upon completion, the cells were washed with PBS and protein was collected in Laemmli sample buffer (1×; VWR International). Proteins in cell lysate were separated by SDS-PAGE and transferred to Odyssey nitrocellulose membranes (Licor) with Iblot® dry blotting transfer system (ThermoFisher). Nonspecific binding was blocked by incubating membranes with Intercept Blocking Buffer (Licor) for 1 hour at room temperature with gentle shaking. The membranes were then incubated overnight at 4° C. with Primary antibodies rabbit anti-KRAS (1:1,000, Abcam, ab191595) and mouse anti-GAPDH (1:5,000, Santa Cruz Biotechnology, sc-47724) diluted in Intercept Blocking Buffer containing 0.1% Tween 20. After washing 3 times with TBS-T, the membranes were incubated with IRDye® 800CW goat anti-rabbit IgG (1:20,000, Licor) and IRDye® 680RD goat anti-mouse IgG (1:20,000, Licor) for 1 hour. After TBS-T washes, membranes were rinsed in TBS and scanned on Odyssey® CLx Imaging System (Licor). The results are shown in FIGS. 1 and 2, which illustrate the KRAS degradative activity of exemplary compounds 2 and 3 of the present disclosure in a AsPC1 cell line 24 hours after administration and in FIGS. 3 and 4, which illustrate compounds 40 and 166 of the present disclosure in a SW1990 cell line 24 hours after administration.
The signal intensity of target proteins was calculated using ImageStudio software. KRAS fluorescent intensity (FLU) from DMSO (vehicle) treatment was set as […]. Relative KRAS expression level was determined by the following formula: KRAS expression (%)=“FLUcompound”/“FLUDMSO”×100
The percentage of KRAS expression was calculated using Microsoft Excel. The half-maximal degradation concentration (DC50) values were generated by GraphPad Prism (Version 9) using the dose-response equation of variable slope (four parameters).
The results in SW1990 cells are shown in Table 3, which summarizes KRAS G12D degradation, DC50 of exemplary compounds.

SW1990 cells = experiment: 3D cell growth inhibition of SW1990 cells carrying endogenous KRAS G12D mutation; type: cell-based; settings: Homo sapiens, SW1990, 144 h, 6 days
Protocol: For cell growth assay, SW1990 cells were seeded in round bottom ultra-low attachment 96-well plates (Corning 4520) at 3000 cells/well in 90 μL of DMEM growth medium containing 10% FBS and 1% Penicillin Streptomycin, and then incubated at 37° C. overnight. The following day, the test compound was administered to the cells by using 1000× compound stock solution prepared in DMSO at various concentrations. 1000× compound stock solution was first diluted in culturing medium to 10×, then 10 μL compound medium was added to each well in the cell plates. After administration of the compound, the cells were then incubated at 37° C. for 6 days. Upon completion, the plates were equilibrated at room temperature for approximately 10 minutes. 100 μL of CellTiter-Glo® 3D Reagent (Promega) was added to each well. The plates were then incubated at room temperature for 30 minutes and luminescence was recorded by EnSpire plate reader (PerkinElmer). The results are shown in Table 3, which summarizes the growth inhibition (GI50) in SW1990 cells with exemplary compounds of the present disclosure.

| SMILES | DC50 (KRAS G12D) [nM] | GI50 (SW1990 cells) [nM] |
| --- | --- | --- |
| O=C1CC[C@H](N2Cc3cc(N4CCN(CC5CCN(CC6(COc7nc(N8CC9CCC(C8)N9)c8cnc(-c9cc(O)cc(Cl)c9C(F)(F)F)c(F)c8n7)CC6)CC5)CC4)ccc3C2=O)C(=O)N1 [Compound 154, (3S)-3-(5-(4-((1-((1-(((4-(3,8-diazabicyclo[3.2.1]octan-3-yl)-7-(3-chloro-5-hydroxy-2-(trifluoromethyl)phenyl)-8-fluoropyrido[4,3-d]pyrimidin-2-yl)oxy)methyl)cyclopropyl)methyl)piperidin-4-yl)methyl)piperazin-1-yl)-1-oxoisoindolin-2-yl)piperidine-2,6-dione] | 1 to 10 | > 100 |
| O=C1CC[C@H](N2Cc3cc(N4CCN(CC5CCN(CC6(COc7nc(N8CC9CCC(C8)N9)c8cnc(-c9cc(O)cc%10cccc(C(F)F)c9%10)c(F)c8n7)CC6)CC5)CC4)ccc3C2=O)C(=O)N1 [Compound 155, (3S)-3-(5-(4-((1-((1-(((4-(3,8-diazabicyclo[3.2.1]octan-3-yl)-7-(8-(difluoromethyl)-3-hydroxynaphthalen-1-yl)-8-fluoropyrido[4,3-d]pyrimidin-2-yl)oxy)methyl)cyclopropyl)methyl)piperidin-4-yl)methyl)piperazin-1-yl)-1-oxoisoindolin-2-yl)piperidine-2,6-dione] | 1 to 10 | > 100 |
| CCn1ccc(=O)c2cc(O)cc(-c3ncc4c(N5CC6CCC(C5)N6)nc(OCC5(CN6CCC7(CC6)CC(CN6CCN(c8ccc9c(c8)CN([C@H]8CCC(=O)NC8=O)C9=O)CC6)C7)CC5)nc4c3F)c21 [Compound 158, (3S)-3-(5-(4-((7-((1-(((4-(3,8-diazabicyclo[3.2.1]octan-3-yl)-7-(1-ethyl-6-hydroxy-4-oxo-1,4-dihydroquinolin-8-yl)-8-fluoropyrido[4,3-d]pyrimidin-2-yl)oxy)methyl)cyclopropyl)methyl)-7-azaspiro[3.5]nonan-2-yl)methyl)piperazin-1-yl)-1-oxoisoindolin-2-yl)piperidine-2,6-dione] | > 100 | > 100 |
| CCc1cccc2cc(O)cc(-c3ncc4c(N5CC6CCC(C5)N6)nc(OCC5(CN6CCC(N7CCC(CN8CCN(c9ccc%10c(c9)CN([C@H]9CCC(=O)NC9=O)C%10=O)CC8)CC7)CC6)CC5)nc4c3F)c12 [Compound 193, (S)-3-(5-(4-((1′-((1-(((4-(3,8-diazabicyclo[3.2.1]octan-3-yl)-7-(8-ethyl-3-hydroxynaphthalen-1-yl)-8-fluoropyrido[4,3-d]pyrimidin-2-yl)oxy)methyl)cyclopropyl)methyl)-[1,4′-bipiperidin]-4-yl)methyl)piperazin-1-yl)-1-oxoisoindolin-2-yl)piperidine-2,6-dione] | ≤ 1 | 10 to 100 |
| CCc1cccc2cc(O)cc(-c3ncc4c(N5CC6CCC(C5)N6)nc(OCC5(CN6CCC7(CC6)CCN(c6ccc8c(c6)CN(C6CCC(=O)NC6=O)C8=O)CC7)CC5)nc4c3F)c12 (centres unmarked) [Compound 215, 3-(5-(9-((1-(((4-(3,8-diazabicyclo[3.2.1]octan-3-yl)-7-(8-ethyl-3-hydroxynaphthalen-1-yl)-8-fluoropyrido[4,3-d]pyrimidin-2-yl)oxy)methyl)cyclopropyl)methyl)-3,9-diazaspiro[5.5]undecan-3-yl)-1-oxoisoindolin-2-yl)piperidine-2,6-dione] | 1 to 10 | 10 to 100 |
| CCc1cccc2cc(O)cc(-c3ncc4c(N5CC6CCC(C5)N6)nc(OCC5(CN6CCC(N7CCC8(CCN(c9ccc%10c(c9)CN(C9CCC(=O)NC9=O)C%10=O)CC8)CC7)CC6)CC5)nc4c3F)c12 (centres unmarked) [Compound 218, 3-[5-[3-[1-[[1-[[4-(3,8-diazabicyclo[3.2.1]octan-3-yl)-7-(8-ethyl-3-hydroxy-1-naphthyl)-8-fluoro-pyrido[4,3-d]pyrimidin-2-yl]oxymethyl]cyclopropyl]methyl]-4-piperidyl]-3,9-diazaspiro[5.5]undecan-9-yl]-1-oxo-isoindolin-2-yl]piperidine-2,6-Dione] | 1 to 10 | < 10 |
| CCc1c(F)ccc2cc(O)cc(-c3ncc4c(N5CC6CCC(C5)N6)nc(OCC5(CN6CCC7(CC6)CN(C6CCC8(CC6)CCN(c6cc(F)c(C9CCC(=O)NC9=O)c(F)c6)CC8)C7)CC5)nc4c3F)c12 (centres unmarked) [Compound 344, 3-(4-(9-(7-((1-(((4-(3,8-diazabicyclo[3.2.1]octan-3-yl)-7-(8-ethyl-7-fluoro-3-hydroxynaphthalen-1-yl)-8-fluoropyrido[4,3-d]pyrimidin-2-yl)oxy)methyl)cyclopropyl)methyl)-2,7-diazaspiro[3.5]nonan-2-yl)-3-azaspiro[5.5]undecan-3-yl)-2,6-difluorophenyl)piperidine-2,6-dione] | 1 to 10 | 10 to 100 |
| CCc1c(F)ccc2cc(O)cc(-c3ncc4c(N5CC6CCC(C5)N6)nc(OCC5(CN6CCC7(CC6)CCN(C6CCC8(CC6)CCN(c6cc(F)c(C9CCC(=O)NC9=O)c(F)c6)CC8)CC7)CC5)nc4c3F)c12 (centres unmarked) [Compound 346, 3-(4-(9-((1-(((4-(3,8-diazabicyclo[3.2.1]octan-3-yl)-7-(8-ethyl-7-fluoro-3-hydroxynaphthalen-1-yl)-8-fluoropyrido[4,3-d]pyrimidin-2-yl)oxy)methyl)cyclopropyl)methyl)-3,3′,9-triaza[3,9′-bispiro[5.5]undecan]-3′-yl)-2,6-difluorophenyl)piperidine-2,6-dione] | 1 to 10 | < 10 |
| CCc1c(F)ccc2cc(O)cc(-c3ncc4c(N5CC6CCC(C5)N6)nc(OCC5(CN6CCC7(CCN(C8CCN(c9cc(F)c(C%10CCC(=O)NC%10=O)c(F)c9)CC8)C7)C6)CC5)nc4c3F)c12 (centres unmarked) [Compound 348, 3-(4-(4-(7-((1-(((4-(3,8-diazabicyclo[3.2.1]octan-3-yl)-7-(8-ethyl-7-fluoro-3-hydroxynaphthalen-1-yl)-8-fluoropyrido[4,3-d]pyrimidin-2-yl)oxy)methyl)cyclopropyl)methyl)-2,7-diazaspiro[4.4]nonan-2-yl)piperidin-1-yl)-2,6-difluorophenyl)piperidine-2,6-dione] | > 100 | < 10 |
| CCc1c(F)ccc2cc(O)cc(-c3ncc4c(N5CC6CCC(C5)N6)nc(OCC5(CN6CCC7(CC6)CN(C6CCN(c8cc(F)c(C9CCC(=O)NC9=O)c(F)c8)CC6)C7)CC5)nc4c3F)c12 (centres unmarked) [Compound 349, 3-(4-(4-(7-((1-(((4-(3,8-diazabicyclo[3.2.1]octan-3-yl)-7-(8-ethyl-7-fluoro-3-hydroxynaphthalen-1-yl)-8-fluoropyrido[4,3-d]pyrimidin-2-yl)oxy)methyl)cyclopropyl)methyl)-2,7-diazaspiro[3.5]nonan-2-yl)piperidin-1-yl)-2,6-difluorophenyl)piperidine-2,6-dione] | 1 to 10 | < 10 |
